Measurements: patent US7781565B2 (priority 2006, dated 2010)
“Also recorded” adds a separate entry of the source.

System: NCI-60 cell lines
Format: cell-based, human

| Substance | Cell Line (NCI-60 cell line the peptide and its motif are associated with) | Cell Line with which the peptide (and its tripeptide motif) is associated | Cell Line (NCI-60 cell line the peptide is associated with) | Cell Line the peptide is associated with (peptide recovered from phage library selection on this NCI-60 cell line) |
| --- | --- | --- | --- | --- |
| GSGYFIT | 786-0 Renal | – | – | – |
| GSITGGS | IGROV1 Ovarian | – | – | – |
| GSLGVSL | – | H226-Lung | – | – |
| GSMHRVS | – | – | SF-295 CNS | – |
| GSNGSSH | OVCAR-8 Ovarian | – | – | – |
| GSSACGA | – | – | U251 CNS | – |
| GSSELSR | DU-145 Prostate | – | – | – |
| GSSGLLA | – | – | – | NCI/ADR-RES Breast |
| GSSHDAL | – | – | SNB-19 CNS; also recorded: SF-539 CNS | – |
| GSSLHLL | – | RPMI-8226-Leukemia | – | – |
| GSSLSRP | – | – | – | RXF393 Renal |
| GSSRPSI | – | – | HCT-15 Colon | – |
| GSSRQFV | – | A549-Lung | – | – |
| GSSRTFR | – | A549-Lung | – | – |
| GSSRVRW | – | – | HCT-15 Colon | – |
| GSSTLQW | – | – | – | TK-10 Renal |
| GSSVSLG | – | – | – | BT-549 Breast |
| GSSWVVD | – | A549-Lung | – | – |
| GSSYSGP | – | – | HCT-116 Colon | – |
| GSTLLSR | – | – | LOX-IMVI Melanoma | – |
| GSVFGTP | – | – | – | UO31 Renal |
| GSVLGAL | – | – | HT-29 Colon | – |
| GSVLGDY | – | – | COLO-205-Colon | – |
| GSVLHVS | – | – | – | HS 578 T Breast |

| Substance | Cell Line (NCI-60 cell line the peptide and its motif are associated with) | Cell Line with which the peptide (and its tripeptide motif) is associated | Cell Line (NCI-60 cell line the peptide is associated with) | Cell Line the peptide is associated with (peptide recovered from phage library selection on this NCI-60 cell line) |
| --- | --- | --- | --- | --- |
| GSVLMRG | OVCAR-4 Ovarian | – | – | – |
| GSVLPVL | SK-OV-3-3 Ovarian | – | – | – |
| GSVSAGA | – | – | HT-29 Colon | – |
| GSVSDRF | – | – | SF-268 CNS | – |
| GSVSHRR | SK-OV-3-3 Ovarian | – | – | – |
| GSVVSSW | – | – | – | ACHN Renal |
| GSWARGY | – | – | HCT-15 Colon | – |
| GTFGVLG | – | Hop-62-Lung | – | – |
| GTGAAVF | – | – | – | RXF393 Renal |
| GTHSGLR | SK-MEL-2 Melanoma | – | – | – |
| GTLGGRV | – | – | HT-29 Colon | – |
| GTLGVLS | UACC62 Melanoma | – | – | – |
| GTLRVGS | – | – | HT-29 Colon | – |
| GTPAVSY | – | – | – | NCI/ADR-RES Breast |
| GVAGGAT | – | – | SW620-Colon | – |
| GVAGLRW | – | – | SW620-Colon | – |
| GVAIGRL | – | – | – | CAIK-1 Renal |
| GVGGGAG | – | – | – | MDA-MB-435-Breast |
| GVGGLSS | – | – | – | HS 578 T Breast |
| GVGGRQS | – | – | – | TK-10 Renal |
| GVIGRGS | UACC62 Melanoma | – | – | – |
| GVLARVT | – | CCRF-CEM Leukemia | – | – |
| GVLEGRR | UACC 257 Melanoma | – | – | – |
| GVLGCDG | PC3 Prostate | – | – | – |

| Substance | Cell Line (NCI-60 cell line the peptide and its motif are associated with) | Cell Line with which the peptide (and its tripeptide motif) is associated | Cell Line (NCI-60 cell line the peptide is associated with) | Cell Line the peptide is associated with (peptide recovered from phage library selection on this NCI-60 cell line) |
| --- | --- | --- | --- | --- |
| GVLHSIA | – | K-562-Leukemia | – | – |
| GVLLWRP | UACC62 Melanoma | – | – | – |
| GVLPVVT | – | – | HCT-15 Colon | – |
| GVLSDRS | SK-MEL-2 Melanoma | – | – | – |
| GVLTIGA | – | – | – | BT-549 Breast |
| GVLTRGN | OVCAR-8 Ovarian | – | – | – |
| GVNGSVS | SK-MEL-28 Melanoma | – | – | – |
| GVRGAAR | – | – | HCT-15 Colon | – |
| GVRGGGD | – | – | – | CAIK-1 Renal |
| GVRPFPR | – | Hop-62-Lung | – | – |
| GVRRSLL | – | – | SNB-75 CNS | – |
| GVRSITL | – | – | – | ACHN Renal |
| GVRSMPV | – | – | LOX-IMVI Melanoma | – |
| GVRTAGP | – | A549-Lung | – | – |
| GVRWNWS | – | – | – | RXF393 Renal |
| GVRYLRT | – | – | HCT-116 Colon | – |
| GVSALSL | – | – | HT-29 Colon | – |
| GVSGLSR | DU-145 Prostate | – | – | – |
| GVSGTVS | IGROV1 Ovarian | – | – | – |
| GVSIRQL | – | H460-Lung | – | – |
| GVSISDG | – | – | – | SN12C Renal |
| GVSIYDL | – | – | – | SN12C Renal |
| GVSKVRA | – | A549-Lung | – | – |
| GVSTGFT | – | K-562-Leukemia | – | – |

| Substance | Cell Line (NCI-60 cell line the peptide and its motif are associated with) | Cell Line with which the peptide (and its tripeptide motif) is associated | Cell Line (NCI-60 cell line the peptide is associated with) | Cell Line the peptide is associated with (peptide recovered from phage library selection on this NCI-60 cell line) |
| --- | --- | --- | --- | --- |
| GVVQAVS | SK-MEL-5 Melanoma | – | – | – |
| GVWLRGS | – | – | – | RXF393 Renal |
| GVYWLRS | – | – | – | TK-10 Renal |
| GWGGGSA | – | – | MALME-3M Melanoma | – |
| GWHGPSH | – | A549-Lung | – | – |
| GWLNAAV | UACC 257 Melanoma | – | – | – |
| GWSASLG | – | – | HCT-116 Colon | – |
| GWTMAAS | – | – | – | TK-10 Renal |
| GWVAVSC | – | – | LOX-IMVI Melanoma | – |
| GYARGSG | – | – | – | RXF393 Renal |
| GYLGRLP | – | – | – | NCI/ADR-RES Breast |
| GYSRASD | – | – | HT-29 Colon | – |
| HAAHGLV | – | Hop-92-Lung | – | – |
| HAAVEPS | OVCAR-5 Ovarian | – | – | – |
| HAAVMSL | – | – | HCT-15 Colon | – |
| HADVLVS | DU-145 Prostate | – | – | – |
| HAELVSL | – | – | KM-12C Colon | – |
| HAGLLVV | – | – | – | TK-10 Renal |
| HAGSRAS | IGROV1 Ovarian | – | – | – |
| HAPGLRV | – | – | MALME-3M Melanoma | – |
| HAWDRGV | – | – | – | MDA-MB-231 Breast |
| HFIRGSV | – | – | HT-29 Colon | – |
| HGGPGAV | – | – | LOX-IMVI Melanoma | – |
